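Interpolation was linear, between the two tested concentrations surrounding the appropriate level; five concentrations were tested over 48 hours in 96-well plates. GI50 = concentration required for 50% inhibition of growth.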 The source made the active and inactive calls. Cut-off read from the data, not from the text of the source: active = GI50 up to about 1.1 µM and inactive = higher.
What was measured:
Experiment in all cases: inhibition of tumour cell growth, NCI panel, 48 h
786-0 = system: 786-0
A498 = system: A498
A549 = system: A549
ACHN = system: ACHN
BT-549 = system: BT-549
CAKI-1 = system: CAKI-1
CCRF-CEM = system: CCRF-CEM
COLO 205 = system: COLO 205
DU-145 = system: DU-145
EKVX = system: EKVX
HCT-116 = system: HCT-116
HCT-15 = system: HCT-15
HL-60 = system: HL-60
HOP-62 = system: HOP-62
HOP-92 = system: HOP-92
HT-29 = system: HT-29
Hs-578T = system: Hs-578T
IGROV-1 = system: IGROV-1
K562 = system: K562
KM12 = system: KM12
LOX IMVI = system: LOX IMVI
M14 = system: M14
MCF7 = system: MCF7
MDA-MB-231 = system: MDA-MB-231
MDA-MB-435 = system: MDA-MB-435
MDA-N = system: MDA-N
MOLT-4 = system: MOLT-4
Malme-3M = system: Malme-3M
NCI-H226 = system: NCI-H226
NCI-H23 = system: NCI-H23
NCI-H460 = system: NCI-H460
NCI-H522 = system: NCI-H522
NCI/ADR-RES = system: NCI/ADR-RES
OVCAR-3 = system: OVCAR-3
OVCAR-4 = system: OVCAR-4
OVCAR-5 = system: OVCAR-5
OVCAR-8 = system: OVCAR-8
PC-3 = system: PC-3
RXF 393 = system: RXF 393
SF-268 = system: SF-268
SF-295 = system: SF-295
SF-539 = system: SF-539
SK-MEL-28 = system: SK-MEL-28
SK-MEL-2 = system: SK-MEL-2
SK-MEL-5 = system: SK-MEL-5
SK-OV-3 = system: SK-OV-3
SN12C = system: SN12C
SNB-19 = system: SNB-19
SNB-75 = system: SNB-75
SR = system: SR
SW-620 = system: SW-620
T47D = system: T47D
TK-10 = system: TK-10
U-251 = system: U-251
UACC-257 = system: UACC-257
UACC-62 = system: UACC-62
UO-31 = system: UO-31
HCC 2998 = system: HCC 2998
RPMI-8226 = system: RPMI-8226

Structure (SMILES): NC1C2C(CC(=O)O)OCC=C3CN4CCC1(C(=O)C(=O)O)C4CC32 (stereo not given)
- GI50 (786-0): > 100 µM (inactive)
- GI50 (A498): > 100 µM (inactive)
- GI50 (A549): > 100 µM (inactive)
- GI50 (ACHN): > 100 µM (inactive)
- GI50 (BT-549): > 100 µM (inactive)
- GI50 (CAKI-1): > 100 µM (inactive)
- GI50 (CCRF-CEM): > 100 µM (inactive)
- GI50 (COLO 205): > 100 µM (inactive)
- GI50 (DU-145): > 100 µM (inactive)
- GI50 (EKVX): > 100 µM (inactive)
- GI50 (HCT-116): > 100 µM (inactive)
- GI50 (HCT-15): > 100 µM
- GI50 (HL-60): > 100 µM (inactive)
- GI50 (HOP-62): > 100 µM (inactive)
- GI50 (HOP-92): > 100 µM (inactive)
- GI50 (HT-29): > 100 µM (inactive)
- GI50 (Hs-578T): > 100 µM (inactive)
- GI50 (IGROV-1): > 100 µM (inactive)
- GI50 (K562): > 100 µM (inactive)
- GI50 (KM12): > 100 µM (inactive)
- GI50 (LOX IMVI): > 100 µM (inactive)
- GI50 (M14): > 100 µM (inactive)
- GI50 (MCF7): > 100 µM (inactive)
- GI50 (MDA-MB-231): > 100 µM (inactive)
- GI50 (MDA-MB-435): > 100 µM (inactive)
- GI50 (MDA-N): > 100 µM (inactive)
- GI50 (MOLT-4): > 100 µM (inactive)
- GI50 (Malme-3M): > 100 µM (inactive)
- GI50 (NCI-H226): > 100 µM (inactive)
- GI50 (NCI-H23): > 100 µM (inactive)
- GI50 (NCI-H460): > 100 µM (inactive)
- GI50 (NCI-H522): > 100 µM (inactive)
- GI50 (NCI/ADR-RES): > 100 µM (inactive)
- GI50 (OVCAR-3): > 100 µM (inactive)
- GI50 (OVCAR-4): > 100 µM (inactive)
- GI50 (OVCAR-5): > 100 µM (inactive)
- GI50 (OVCAR-8): > 100 µM (inactive)
- GI50 (PC-3): > 100 µM (inactive)
- GI50 (RXF 393): > 100 µM (inactive)
- GI50 (SF-268): > 100 µM (inactive)
- GI50 (SF-295): > 100 µM (inactive)
- GI50 (SF-539): > 100 µM (inactive)
- GI50 (SK-MEL-28): > 100 µM (inactive)
- GI50 (SK-MEL-2): > 100 µM (inactive)
- GI50 (SK-MEL-5): > 100 µM (inactive)
- GI50 (SK-OV-3): > 100 µM (inactive)
- GI50 (SN12C): > 100 µM (inactive)
- GI50 (SNB-19): > 100 µM (inactive)
- GI50 (SNB-75): > 100 µM (inactive)
- GI50 (SR): > 100 µM (inactive)
- GI50 (SW-620): > 100 µM (inactive)
- GI50 (T47D): > 100 µM (inactive)
- GI50 (TK-10): > 100 µM (inactive)
- GI50 (U-251): > 100 µM (inactive)
- GI50 (UACC-257): > 100 µM (inactive)
- GI50 (UACC-62): > 100 µM (inactive)
- GI50 (UO-31): > 100 µM (inactive)

Structure (SMILES): O=C(OCc1ccccc1)N1CCNCCNCC1
- GI50 (786-0): > 100 µM (inactive)
- GI50 (A498): > 100 µM (inactive)
- GI50 (A549): > 100 µM (inactive)
- GI50 (ACHN): > 100 µM (inactive)
- GI50 (BT-549): > 100 µM (inactive)
- GI50 (CAKI-1): > 100 µM (inactive)
- GI50 (CCRF-CEM): > 100 µM (inactive)
- GI50 (COLO 205): > 100 µM (inactive)
- GI50 (DU-145): > 100 µM (inactive)
- GI50 (EKVX): > 100 µM (inactive)
- GI50 (HCC 2998): > 100 µM (inactive)
- GI50 (HCT-116): > 100 µM (inactive)
- GI50 (HCT-15): > 100 µM
- GI50 (HL-60): > 100 µM (inactive)
- GI50 (HOP-62): > 100 µM (inactive)
- GI50 (HOP-92): > 100 µM (inactive)
- GI50 (HT-29): > 100 µM (inactive)
- GI50 (Hs-578T): > 100 µM (inactive)
- GI50 (IGROV-1): > 100 µM (inactive)
- GI50 (K562): > 100 µM (inactive)
- GI50 (KM12): > 100 µM (inactive)
- GI50 (LOX IMVI): > 100 µM (inactive)
- GI50 (M14): > 100 µM (inactive)
- GI50 (MCF7): > 100 µM (inactive)
- GI50 (MDA-MB-231): > 100 µM (inactive)
- GI50 (MDA-MB-435): > 100 µM (inactive)
- GI50 (MDA-N): > 100 µM (inactive)
- GI50 (MOLT-4): > 100 µM (inactive)
- GI50 (NCI-H226): > 100 µM (inactive)
- GI50 (NCI-H23): > 100 µM (inactive)
- GI50 (NCI-H460): > 100 µM (inactive)
- GI50 (NCI-H522): > 100 µM (inactive)
- GI50 (NCI/ADR-RES): > 100 µM (inactive)
- GI50 (OVCAR-3): > 100 µM (inactive)
- GI50 (OVCAR-4): > 100 µM (inactive)
- GI50 (OVCAR-5): > 100 µM (inactive)
- GI50 (OVCAR-8): > 100 µM (inactive)
- GI50 (PC-3): > 100 µM (inactive)
- GI50 (RPMI-8226): > 100 µM (inactive)
- GI50 (RXF 393): > 100 µM (inactive)
- GI50 (SF-268): > 100 µM (inactive)
- GI50 (SF-295): > 100 µM (inactive)
- GI50 (SF-539): > 100 µM (inactive)
- GI50 (SK-MEL-28): > 100 µM (inactive)
- GI50 (SK-MEL-2): > 100 µM (inactive)
- GI50 (SK-MEL-5): > 100 µM (inactive)
- GI50 (SN12C): > 100 µM (inactive)
- GI50 (SNB-19): > 100 µM (inactive)
- GI50 (SR): > 100 µM (inactive)
- GI50 (SW-620): > 100 µM (inactive)
- GI50 (T47D): > 100 µM (inactive)
- GI50 (TK-10): > 100 µM (inactive)
- GI50 (U-251): > 100 µM (inactive)
- GI50 (UACC-257): > 100 µM (inactive)
- GI50 (UACC-62): > 100 µM (inactive)
- GI50 (UO-31): > 100 µM (inactive)

Structure (SMILES): Nn1c(=O)[nH]c2ncn(Cc3ccccc3)c2c1=O
- GI50 (786-0): > 100 µM (inactive)
- GI50 (A498): > 100 µM (inactive)
- GI50 (A549): > 100 µM (inactive)
- GI50 (ACHN): > 100 µM (inactive)
- GI50 (BT-549): > 100 µM (inactive)
- GI50 (CAKI-1): > 100 µM (inactive)
- GI50 (CCRF-CEM): > 100 µM (inactive)
- GI50 (COLO 205): > 100 µM (inactive)
- GI50 (DU-145): > 100 µM (inactive)
- GI50 (EKVX): > 100 µM (inactive)
- GI50 (HCC 2998): > 100 µM (inactive)
- GI50 (HCT-116): > 100 µM (inactive)
- GI50 (HCT-15): > 100 µM
- GI50 (HL-60): > 100 µM (inactive)
- GI50 (HOP-62): > 100 µM (inactive)
- GI50 (HOP-92): > 100 µM (inactive)
- GI50 (HT-29): > 100 µM (inactive)
- GI50 (Hs-578T): > 100 µM (inactive)
- GI50 (IGROV-1): > 100 µM (inactive)
- GI50 (K562): > 100 µM (inactive)
- GI50 (KM12): > 100 µM (inactive)
- GI50 (M14): > 100 µM (inactive)
- GI50 (MCF7): > 100 µM (inactive)
- GI50 (MDA-MB-231): > 100 µM (inactive)
- GI50 (MDA-MB-435): > 100 µM (inactive)
- GI50 (MDA-N): > 100 µM (inactive)
- GI50 (MOLT-4): > 100 µM (inactive)
- GI50 (Malme-3M): > 100 µM (inactive)
- GI50 (NCI-H226): > 100 µM (inactive)
- GI50 (NCI-H23): > 100 µM (inactive)
- GI50 (NCI-H460): > 100 µM (inactive)
- GI50 (NCI-H522): > 100 µM (inactive)
- GI50 (NCI/ADR-RES): > 100 µM (inactive)
- GI50 (OVCAR-3): > 100 µM (inactive)
- GI50 (OVCAR-4): > 100 µM (inactive)
- GI50 (OVCAR-5): > 100 µM (inactive)
- GI50 (OVCAR-8): > 100 µM (inactive)
- GI50 (PC-3): > 100 µM (inactive)
- GI50 (RXF 393): > 100 µM (inactive)
- GI50 (SF-268): > 100 µM (inactive)
- GI50 (SF-295): > 100 µM (inactive)
- GI50 (SF-539): > 100 µM (inactive)
- GI50 (SK-MEL-28): > 100 µM (inactive)
- GI50 (SK-MEL-2): > 100 µM (inactive)
- GI50 (SK-MEL-5): > 100 µM (inactive)
- GI50 (SK-OV-3): > 100 µM (inactive)
- GI50 (SN12C): > 100 µM (inactive)
- GI50 (SNB-19): > 100 µM (inactive)
- GI50 (SNB-75): > 100 µM (inactive)
- GI50 (SR): > 100 µM (inactive)
- GI50 (SW-620): > 100 µM (inactive)
- GI50 (T47D): > 100 µM (inactive)
- GI50 (TK-10): > 100 µM (inactive)
- GI50 (U-251): > 100 µM (inactive)
- GI50 (UACC-257): > 100 µM (inactive)
- GI50 (UACC-62): > 100 µM (inactive)
- GI50 (UO-31): > 100 µM (inactive)
